What all share (format): cell-based, human
For one assay, the system named is ATM mutated CLL cells. The assay is described as follows: CLL patient cells apoptosis assay (DioC6/PI). To be noted: 48 hours; FIGS. 2D, G.
Assay [1] concerns CD95, CD54, CD58, CD44 on CLL cells. The assay is described as follows: Expression of cell surface markers (flow cytometry). To be noted: CD40L coculture; 1 μM, 3 days. (In flow cytometry, cells or beads pass a laser one at a time.)
Description: Expression of Cell Surface Markers.
Cells were washed and resuspended in staining media (phosphate-buffered saline (PBS) containing 0.5% (wt/vol) bovine serum albumin (BSA)). For analysis of expression of cell surface markers, different combinations of antibodies were used. CD54-PE and CD95-FITC purchased from Pharmingen. CD44-Alexa Fluor 700 was obtained from eBiosciences and CD58 from Immunotech. After incubation for 30 minutes at 4° C. protected from light, cells were washed twice in PBS/0.5% BSA and expression of cell surface markers was analyzed using FACSCalibur flow cytometry.
The test system of the next assay is phospho-S6. The assay is described as follows: Western blot of mTOR pathway, unstimulated CLL cells. The settings on record: 1 μM, 2 hours. As for the experimental part:
(§1) Protein lysates were probed for phospho-S6 and actin for loading control. Blots from three representative CLL samples are shown, of a total of five analyzed. […] Blots were probed for p-Akt(Thr308), p-Akt (Ser473), p-S6, p-4EBP1 and actin for loading control. Blots from two representative CLL samples shown, of a total of four analyzed.
(§2) Western blot analysis was performed using standard techniques [Hallaert et al. Blood 2008(112):5141-5149]. Samples (50 μg protein) were separated by 13% SDS-PAGE gel electrophoresis. Membranes were probed with anti-p-S6, p-4EBP1, p-Akt (Thr308), p-Akt (Ser473) (Cell Signaling), Bim (Stressgen Bioreagents Canada) and antiserum to β-actin (Santa Cruz Biotechnology) as loading control. Blots were subsequently incubated with IRDye 680 or 800 labelled secondary antibodies for 1 hour. Odyssey Imager (Li-Cor Biosciences) was used as a detection method according to the manufacturer's protocol. For the p-DNA-PK western blot, cells were lysed in RIPA sample buffer and sonificated. Samples (50 μg protein) were separated by mini protean TGX gels (Biorad). Transfer onto Immobilon-FL transfer membrane (Millipore) in 1× transfer buffer, 20% MeOH at 30 volts at 4° C. overnight. The following antibodies were used: p-DNA-PK (Ser2056) (Abcam), KAP (TIF1β), phosphorylated-KAP (phospho-TIF1β-ser824; Cell Signalling) and β-actin (Santa Cruz).
(A western blot detects proteins with antibodies after separation by electrophoresis.)

Assay [2] concerns mRNA of pro-/anti-apoptotic mediators in CLL cells. As to the kind of experiment: RT-MLPA of pro- and anti-apoptotic regulators. To be noted: 1 μM, 24 hours.
Description: Reverse Transcription-Multiplex Ligation-Dependent Probe Amplification Assay.
CLL Cells were harvested per stimulation, washed with PBS, resuspended in RNA lysis buffer (Qiagen, Venlo, the Netherlands) and stored at −80° C. RNA was isolated using the GenElute Mammalian Total RNA Miniprep kit (Sigma-aldrich). The concentration and purity of the RNA were determined with a NanoDrop spectrophotometer ND-1000 (NanoDrop Technologies, Willington, USA). Reverse transcription-multiplex ligation-dependent probe amplification assay (RT-MLPA) procedure was performed as described previously by Eldering et al. Nucleic Acids Res. 2003; 31:e153. In brief, 40-60 ng of total RNA of samples were first reverse transcribed using a gene-specific probe mix (R016-X2). The resulting cDNA was annealed overnight at 60° C. to the MLPA probes. The annealed oligonucleotides were covalently linked by Ligase-65 (MRC, Amsterdam, the Netherlands) at 54° C. […] Results were analyzed using the programs Genescan analysis and Genotypes (Applied Biosystems). Data was further analyzed with Microsoft Excel Spreadsheet software. Normalization was performed by setting the sum of all data per sample at 100% and individual peaks were calculated relative to the 100% value.
The test system of assay [3] is p-S6, p-4EBP1, p-Akt (Ser473). The assay is described as follows: Western blot of mTOR pathway, CD40L-activated CLL cells. To be noted: 100, 500 or 1000 nM, 72 hours. The protocol:
as §1, §2

The next assay deals with Wildtype CLL cells. As to the kind of experiment: Compound toxicity assay for CLL patient cells (wildtype). To be noted: FIG. 1A; for sensitivity of wildtype CLL cells to the compound: single agent, feeder layer of CD40 ligand-expressing NIH 3T3 cells.
In another assay the test system is IGVH unmutated CLL cells. As to the kind of experiment: CLL patient cells apoptosis assay (DioC6/PI). The settings on record: 48 hours; FIGS. 2B, F. The source says: (§3) CLL Patient Cells Apoptosis Assay. Patient material ([…] blood) was obtained from CLL patients (diagnosed according to the NCI-WG guidelines) after routine follow-up or diagnostic procedures at the department of hematology of the Academic Medical Center Amsterdam. Peripheral blood mononuclear cells (PBMCs) were isolated by Ficoll density gradient centrifugation and stored in liquid nitrogen, as cell suspension in heat-inactivated fetal calf serum containing 10% DMSO. During all in vitro experiments, cells were maintained in culture medium: Iscove's modified Dulbecco medium supplemented with 10% heat-inactivated FCS, 100 U/mL penicillin, […] gentamycin and 0.00036% β-mercaptoethanol. All samples contained at least 90% CD5+/CD19+ cells as assessed via flow cytometry. B-CLL cells were thawed and diluted to a concentration of 1.10^6 cells/mL in IMDM plus supplements as described above. […] Apoptosis was analyzed by evaluation of mitochondrial membrane potential with DioC6 (Molecular probes). Cells were incubated with 10 nM DioC6 for 30 minutes at 37° C. and 20 μg/mL propidium iodide was added to measure cell death. Expression of DioC6 was determined using the FACSCalibur flow cytometer and CellQuest software was used for data acquisition. Data were analyzed with FlowJo software (TreeStar, San Carlos, Calif., USA).

In another assay the test system is IGVH mutated CLL cells. The assay is described as follows: CLL patient cells apoptosis assay (DioC6/PI). The settings on record: 48 hours; FIGS. 2A, E.
From the text: as §3

A further assay concerns P53 mutated CLL cells. The assay is described as follows: CLL patient cells apoptosis assay (DioC6/PI). To be noted: 48 hours, FIGS. 2C.
From the text: as §3

The next assay has as its system primary CLL cells. The assay is described as follows: BCR-mediated adhesion of primary CLL cells to fibronectin. The settings on record: 1 μM pretreatment; IgVH unmutated samples; n=5. As for the experimental part:
Graphs are presented as normalized mean±SEM (100%=stimulated cells without inhibitors). *0.01≤P<0.05; **0.001≤P<0.01 (paired one sample T test) (n=5). BCR-mediated adhesion of primary CLL cells (FIG. 4) was tested.

Assay [4] has as its system CLL cells. The assay is described as follows: CD40L coculture survival and fludarabine sensitivity assay (DiOC6/PI). As for the experimental part:
(§4) FIG. 7A) Apoptosis was assessed by DiOC6/PI staining and results are shown as mean±SEM (n=7). *0.01≤P<0.05; **0.001≤P<<0.01; ***P<0.001 (paired T test). FIG. 7B) After 3 days, fludarabine sensitivity assay was performed. Apoptosis was assessed by DiOC6/PI staining and specific apoptosis are shown as mean±SEM (n=7). *0.01≤P<0.05; **0.001≤P<0.01 (paired T test) FIG. 7C) mRNA levels of pro-/anti-apoptotic mediators in CLL cells were measured by RT-MLPA (n=6). FIG. 7D) Protein lysates were probed for Bim and actin for loading control. Blots from two representative CLL samples shown, of a total of four analyzed.
CD40 stimulation inhibits spontaneous cell death as previously reported [Burger et al. Blood 2009(114):2560-2561]. Lymphocytes of CLL patients were stimulated by coculture with NIH3T3 fibroblasts stably transfected with human CD40L or negative control plasmid (3T3) as described before [Pascutti et al Blood 2013 2013; 122(17):3010-9]. […] After 72 hours of culture, CLL cells were detached and either used for flowcytrometic analyses or subsequently incubated with or without Fludarabine (Sigma) for an additional 48 hours. CLL cell viability was measured as by DiOC6/PI staining as described above. […] CD40L stimulation induces resistance to cytotoxic agents, including fludarabine [Kater et al. Brit J Haematology 2004; 127:404-415].

In assay [5] the test system is CLL cells. The assay is described as follows: CFSE proliferation assay of CLL cells on 3T40L cells with IL-21. The settings on record: CD40L + IL-21 (25 ng/ml); 1 μM, 4 days. The protocol:
After 4 days, CFSE was measured by FACS. […] FIG. 8B) Division index was calculated with FlowJo program. […] PBMC (1.0×10^7/mL) were labelled with 0.5 μM carboxyfluorescein diacetate succinimidyl ester (CFSE, Molecular Probes) as described before [Pascutti et al Blood 2013 2013; 122(17):3010-9]. […] After 4 days, proliferation was assessed in a FACS Canto (BD Biosciences) and analyzed with FlowJosoftware (TreeStar, Ashland, Oreg.).

The test system of assay [6] is CLL cells. The assay is described as follows: Detection of apoptosis with QvD or NAC co-treatment (DiOC6/PI). To be noted: 5 mM NAC, 48 hours.
Description: Apoptosis levels were measured by Flow using DiOC6/PI staining and specific apoptosis was calculated. Results are shown as mean±SEM.
Where indicated, CLL cells were co-cultured in the presence/absence of 20 μM of the pancaspase inhibitor QvD or 5 mM N-acetyl-L-cysteine (NAC). CLL cell viability was measured by analysis of mitochondrial transmembrane potential by 3,3-dihexyloxocarbocyanine iodine (DiOC6; Invitrogen/Molecular Probes) and cell membrane permeability to propidium iodide (PI; Sigma Aldrich) using the FACS Calibur flow cytometer. Specific apoptosis is defined as [% cell death in drug treated cells]−[% cell death in medium control]/[% viable cells medium control]×100 using the Graphpad Prism software (Graphpad Prism 5.0, La Jolla, USA).
Another assay has as its system del(11q) CLL cells. The assay is described as follows: Compound toxicity assay for CLL patient cells (del(11q)). To be noted: single agent; feeder layer of CD40 ligand-expressing NIH 3T3 cells; FIG. 1B.
The next assay relates to Bim. As to the kind of experiment: Bim protein Western blot in CD40L-cocultured CLL cells. To be noted: CD40L coculture; 1 μM, 3 days. The protocol: as §4
as §2, with “Transfer onto Immobilon-FL transfer membrane (Millipore) in 1× transfer buffer, 20% MeOH at 30 volts at 4° C. overnight. The following antibodies were used: p-DNA-PK (Ser2056) (Abcam), KAP (TIF1β), phosphorylated-KAP (phospho-TIF1β-ser824; Cell Signalling) and β-actin (Santa Cruz).” left out

The test system of assay [7] is CLL cells. As to the kind of experiment: Blast cell formation of CD40L-cocultured CLL cells (FACS). The settings on record: CD40L coculture; 1 μM, 3 days. As for the experimental part:
FIG. 6A and FIG. 6B) Blast cell formation was assessed by FACS analysis and results are shown as mean±SEM. *0.01≤P<0.05; **0.001≤P<0.01; ***P<0.001 (paired one sample T test) FIG. 6C) CLL cells were examined for surface expression of CD95 (Fas), CD44, CD54 (ICAM) and CD58 (LFA-3) by flow cytometry. Results are shown as mean±SEM (n=6).

A further assay deals with BIM and BID mRNA. As to the kind of experiment: RT-MLPA in CD40L triggered CLL cells. The settings on record: 1 μM, 3 days. The protocol: as §4

Entries after “also recorded” stand apart in the source; their conditions may differ.

From the text for ATM mutated CLL cells: Patient material (pheripheral blood) was obtained from CLL patients (diagnosed according to the NCI-WG guidelines) after routine follow-up or diagnostic procedures at the department of hematology of the Academic Medical Center Amsterdam. Peripheral blood mononuclear cells (PBMCs) were isolated by Ficoll density gradient centrifugation and stored in liquid nitrogen, as cell suspension in heat-inactivated fetal calf serum containing 10% DMSO. During all in vitro experiments, cells were maintained in culture medium: Iscove's modified Dulbecco medium supplemented with 10% heat-inactivated FCS, 100 U/mL penicillin, 100 m/mL gentamycin and 0.00036% β-mercaptoethanol. All samples contained at least 90% CD5+/CD19+ cells as assessed via flow cytometry. […] Apoptosis was analyzed by evaluation of mitochondrial membrane potential with DioC6 (Molecular probes). Cells were incubated with 10 nM DioC6 for 30 minutes at 37° C. and 20 μg/mL propidium iodide was added to measure cell death. Expression of DioC6 was determined using the FACSCalibur flow cytometer and CellQuest software was used for data acquisition.

Consider `CCN1C(=O)CNc2ncc(-c3ccc(-c4nc[nH]n4)nc3C)nc21` [Compound 1, 1-ethyl-7-(2-methyl-6-(1H-1,2,4-triazol-3-yl)pyridin-3-yl)-3,4-dihydropyrazino[2,3-b]pyrazin-2(1H)-one], for which the induction of apoptosis result with ATM mutated CLL cells is “induced apoptosis”. Also, the “3T40L-induced upregulation of immune accessory molecules (CD95, CD54, CD58, CD44)” value in assay [1] is on record as “significant inhibition”. Further, the “phosphorylation of S6” value in the assay on phospho-S6 is “completely blocked”. Also, in assay [2], the “levels of pro- and anti-apoptotic regulators on RNA level, including p53-target genes” value is listed as “not altered”. Besides, in [3], the p-4EBP1 upregulation result is given as “completely blocked”, the “p-Akt (Ser473) upregulation” value is listed as “completely blocked” and the p-S6 upregulation result is recorded as “completely blocked”. The “enhancement of response by addition of Compound 1 to the etoposide regimen” value with Wildtype CLL cells (combination with etoposide, ATM-proficient CLL cells) is recorded as “did not significantly enhance”. Also, in the assay with Wildtype CLL cells, the “sensitivity of wildtype CLL cells to the compound” value is given as “resistant”. Also, the induction of apoptosis entry in the assay on IGVH unmutated CLL cells is listed as “induced apoptosis”. Besides, the induction of apoptosis result with IGVH mutated CLL cells is “induced apoptosis”. Moreover, the induction of apoptosis result in the assay on P53 mutated CLL cells is listed as “induced apoptosis”. In the assay with primary CLL cells, the “anti-IgM-stimulated integrin-mediated adhesion to fibronectin” value is reported as “strongly inhibited”. The fludarabine sensitivity entry in the assay with CLL cells [4] (72 hours CD40L coculture, then fludarabine 48 hours) is reported as “partly reversed”. In addition, in the assay on CLL cells [4] (CD40L coculture, 1 μM, 3 days), the CD40L-induced survival entry was “inhibited”. The CD40-induced fludarabine resistance entry with CLL cells [4] (co-treatment with Compound 1 during CD40L coculture, then fludarabine 48 hours) is reported as “completely abolished”. Also, in the assay with CLL cells [5], the “proliferation of CLL cells” value is recorded as “completely blocks; also recorded: fully blocked”. In addition, the “ROS dependence of cell death: effect of NAC co-treatment on cell death” value with CLL cells [6] was “did not result in inhibition”. Also, in the assay on del(11q) CLL cells, the “sensitivity of del(11q) CLL cells to the compound” value is listed as “exclusively sensitive”. Moreover, the “CD40-mediated decreased expression of Bim protein” value in the assay with Bim is given as “blocked”. In the assay with CLL cells [7], the “blast-like appearance / blast cell formation” value is “completely blocked”. For the same compound, in the assay on BIM and BID mRNA, the “CD40-mediated inhibition of BIM (RNA)” value was “blocked” and the “upregulation of BID (RNA)” value is reported as “decreased”.

Consider `COc1cc([C@@H]2c3cc4c(cc3[C@@H](O[C@@H]3O[C@@H]5CO[C@@H](C)O[C@H]5[C@H](O)[C@H]3O)[C@H]3COC(=O)[C@H]23)OCO4)cc(OC)c1O` [etoposide, reference compound], for which, in the assay on Wildtype CLL cells, the “sensitivity of wildtype CLL cells to the compound” value is recorded as “highly sensitive”. Also, the “sensitivity of del(11q) CLL cells to the compound” value in the assay with del(11q) CLL cells is “largely resistant”.

Values taken from patent US9980963B2, “Treatment of cancer with dihydropyrazino-pyrazines” (Signal Pharmaceuticals, LLC, priority 2013, dated 2018).
